Laboratory results: a melting point compilation (Tetko et al.)

SMILES | melting point [°C]
Cc1ccc(S(=O)(=O)N2CCCCC2C)cc1C(=O)O (stereo unspecified) | 149 to 151
Cc1ccc(-n2c(N)nc3cc(Br)ccc32)cc1 | 194 to 196
CC1(C)NC(=O)N=C1N | 259 to 261
Cc1cc(C(=O)O)nc2nc(O)[nH]c(=O)c12 | 266 to 268
Nc1nc(-c2ccc(O)cc2)n[nH]1 | 268 to 270
CN(C1CCCCC1)S(=O)(=O)c1ccc(S)nc1 | 175 to 177
COc1ccc(CC(N)=NO)cc1OC | 135 to 137
CCOC(=O)C(=O)CC(=O)c1ccc2c(c1)OCO2 | 61 to 63
N#Cc1ccccc1S(N)(=O)=O | 306 to 308
O=C(O)C(O)CCc1ccccc1 (stereo unspecified) | 114 to 117
Cc1cc(CC(=O)O)c(C)s1 | 66 to 68
Cc1ccc(-c2ccc(C(=O)O)s2)o1 | 197 to 199
NC(=O)C1CCN(C(=O)CCl)CC1 | 136 to 138
COc1ccc(Cl)cc1NC(=O)CCl | 101 to 103
CC1(C)CC(C)(C)c2cc(O)ccc21 | 99 to 101
O=C1OCCc2cnc3ncnn3c21 | 271 to 273
CC(C)(C)N1C(=O)CC(C(=O)O)C1c1ccc(Cl)c(F)c1 (stereo unspecified) | 249 to 251
Nc1ccccc1C(=O)NCc1ccc2c(c1)OCO2 | 115 to 124
Oc1cccc(-c2nnc[nH]2)c1 | 192 to 194
NC(=S)CN1C(=O)CCC1=O | 156 to 158
Nc1ccccc1C(=O)Nc1ccc2c(c1)OCO2 | 85 to 87
COC(=O)C(=O)CC(=O)c1ccc(OC)cc1 | 104 to 106
CCn1cc(C(=O)O)cn1 | 144 to 146
O=C(O)CNS(=O)(=O)c1ccc2c(c1)nnn2O | 229 to 231
O=C(Nc1ccccc1)C(Cl)C(=O)c1ccccc1 (stereo unspecified) | 113 to 115

SMILES | melting point [°C]
O=C(O)Cn1ncc(=O)c2ccccc21 | 120 to 122
CCn1cc(S(N)(=O)=O)cn1 | 86 to 88
O=C(O)c1cc(-c2ccccc2)ns1 | 183 to 185
Nc1nc(-c2ccccc2Cl)co1 | 137 to 139
COc1cc([N+](=O)[O-])ccc1NC(=O)C(C)Cl (stereo unspecified) | 85 to 87
CCn1c(S)nc2ccsc2c1=O | 286 to 288
NC1(c2nc(C(=O)O)c[nH]2)CCC1 | 273 to 275
CN(C)CCCNC(N)=S | 66 to 68
O=C(NC1CC1)C(Cl)c1ccccc1 (stereo unspecified) | 128 to 130
CCOc1ccc(-c2nnc(N)o2)cc1 | 238 to 240
CS(=O)(=O)c1ccc(F)c(N)c1 | 69 to 71
CC(C)(C)n1cnnc1SCC(=O)O | 161 to 163
CC(C(=O)O)n1cc(Cl)cn1 (stereo unspecified) | 56 to 59
O=C(NCc1ccccc1)c1ccccc1O | 78 to 82
O=CNc1cccc(O)c1 | 115 to 117
O=C(CC1CCCC1)N1CCNCC1 | 37 to 39
Cc1cccc(OCCC(=O)O)c1 | 99 to 101
COC(=O)c1cc(OC)c(OC(F)F)cc1N | 89 to 91
O=C(O)COc1cccc(Oc2ccccn2)c1 | 124 to 126
NS(=O)(=O)c1ccccc1S(=O)(=O)Cl | 179 to 181
O=C(O)c1ccnc(OCc2ccccc2)c1 | 171 to 173
O=C(c1ccc(Cl)c([N+](=O)[O-])c1)N1CCCCC1 | 74 to 76
Cc1cc2[nH]c(=O)c3ccccc3n2n1 | 278 to 282
Cc1ccccc1OCC(=O)NN | 120 to 122
O=C(O)CCCOc1ccccc1Cl | 84 to 86

SMILES | melting point [°C]
Cc1nnnn1C(Cc1cccc(F)c1)C(=O)O (stereo unspecified) | 158 to 160
Cc1cc(C(=O)O)c2ccc(F)cc2n1 | 267 to 269
O=C(O)C1CCCN1C(=O)c1ccc(Cl)s1 (stereo unspecified) | 127 to 129
O=C(O)c1nnn(-c2cccc(Br)c2)c1C(F)(F)F | 154 to 156
CC(C)Cn1cnc2c1c(=O)[nH]c(=O)n2Cc1ccccc1 | 179 to 181
OC1CCCc2c[nH]nc21 (stereo unspecified) | 107 to 109
O=C(O)C1(Cc2ccc(Cl)cc2)CCCC1 | 71 to 73
C#CCNS(C)(=O)=O | 56 to 58
O=C1CC(c2ccccc2)=NN1c1ccccc1 | 138 to 140
O=c1cc(CCl)c2cc(O)c(O)cc2o1 | 178 to 180
O=C(O)c1ccc([N+](=O)[O-])cc1I | 139 to 141
CC(C)(C)c1nn(-c2ccccc2)c(Cl)c1C=O | 34 to 36
O=C(O)c1ccccc1COc1ccccc1 | 126 to 128
Cc1cc(C)cc(-c2nnc(S)o2)c1 | 240 to 242
CC(C)(C)C(=O)NCC(=O)O | 132 to 134
CCOC(=O)Nc1nc2ccc(N)cc2s1 | 339 to 341
S=C=Nc1cccnc1Cl | 35 to 37
CCCS(=O)(=O)Nc1ccccc1C(=O)O | 150 to 152
O=Ic1ccccc1 | 199 to 201
COc1ccccc1N1CC(C(=O)O)CC1=O (stereo unspecified) | 139 to 141
Cc1nnc(-c2cccc(CN)c2)[nH]1 | 199 to 201
NCC(O)COc1cccc(F)c1 (stereo unspecified) | 84 to 86
Cc1cn2c(n1)CNCC2 | 100 to 102
Nc1ccccc1-c1nc(-c2ccccc2)n[nH]1 | 177 to 179
Cn1cc(Br)c([N+](=O)[O-])n1 | 157 to 159

SMILES | melting point [°C]
CC1CNC(=Nc2cccc3cccnc23)S1 (stereo unspecified) | 92 to 94
CC(=O)N1CCN(Cc2cccc(N)n2)CC1 | 169 to 171
O=C(O)c1cc([N+](=O)[O-])cc2c1OCCO2 | 248 to 250
OCc1cn(-c2ccc(Cl)c(Cl)c2)nn1 | 142 to 144
N#CC(c1ccccc1)(c1ccc(F)cc1)c1ccc(F)cc1 | 74 to 76
CC(=O)c1c(C)nn(-c2ccccc2)c1C | 60 to 62
Nc1nc2c3c(ccc2s1)CCCC3 | 122 to 124
O=C(NC1(c2nn[nH]n2)CCCC1)c1ccccc1 | 228 to 230
NCc1ccc(OCC(N)=O)cc1 | 106 to 108
CC1(c2cccc([N+](=O)[O-])c2)NC(=O)NC1=O (stereo unspecified) | 178 to 180
Cc1oc(-c2cnn(C)c2)nc1C(=O)O | 249 to 251
CCCNc1ccc(CN2CCN(C)CC2)cn1 | 69 to 71
O=C(O)c1cccnc1OCCO | 196 to 198
O=C(O)C=CC1CC1 | 68 to 70
CC(C)c1sc(NC(=O)CCl)nc1-c1ccccc1 | 136 to 138
CC(C)(O[Si](C)(C)C)C(N)=O | 29 to 31
Nc1ccc2c(c1)C(=O)NC2 | 237 to 239
N#Cc1nc(Cl)cc(N)c1N | 249 to 251
O=C(O)c1ccc(Oc2cccc(Br)c2)cc1 | 151 to 153
NCCCc1nc2ccccc2[nH]1 | 210 to 212
NC(=O)NCCCCC(=O)O | 178 to 180
CC1(c2ccc([N+](=O)[O-])cc2)NC(=O)NC1=O (stereo unspecified) | 235 to 237
CS(=O)(=O)Nc1cc(N)ccc1F | 154 to 156
Cc1cc2ncn(Cc3ccc(F)cc3)c2cc1C | 135 to 137
Cc1cc(CN2CCNCC2)no1 | 59 to 71

SMILES | melting point [°C]
c1ccc2c(c1)CC(n1cccn1)CN2 (stereo unspecified) | 102 to 104
NCCc1ccc(S(=O)(=O)N2CCCCC2)s1 | 74 to 76
Cc1ccc(NS(=O)(=O)c2cccc(C(=O)O)c2)cc1 | 203 to 205
CCc1nc(N)no1 | 39 to 41
Cc1oncc1C(=O)Nc1ccc(CC(=O)O)cc1 | 208 to 210
O=C(O)CC1(CC(=O)Nc2nccs2)CCCCC1 | 175 to 177
N#Cc1c[nH]c2ccc(Br)cc2c1=O | 359 to 361
O=C(NC1CCCCC1)OCC(F)(F)F | 78 to 82
Cc1cc2cc(Br)ccc2s1 | 69 to 71
Nc1cc2c(cc1NC(=O)c1cccs1)OCCO2 | 178 to 180
N#CCN(CC#N)C(=O)CCCl | 62 to 64
CC(SC1=NS(=O)(=O)c2ccccc21)C(=O)O (stereo unspecified) | 182 to 184
Cc1cccc(C)c1CC(=O)O | 117 to 119
Cc1ccc2[nH]c(C(=O)O)cc2c1 | 218 to 220
COc1cc(CN)cc(OC)c1 | 35 to 37
Cc1cc(C(=O)O)nn1C(C)C1CC1 (stereo unspecified) | 130 to 132
COC(=O)c1cc(Cl)ccc1S(=O)(=O)Cl | 74 to 76
COc1cc(C(=O)O)ccc1OCc1ccccc1 | 174 to 176
Cc1cc(C)cc(-n2nc(C)cc2N)c1 | 95 to 97
CCCNC(=O)NC(=O)CCl | 119 to 121
COc1ccc(C(=O)c2ccccc2)c(OC)c1 | 81 to 83
NC(=O)c1cnn2c3c(cnc12)CCOC3=O | 289 to 291
O=C(O)c1ccc(C(=O)c2cc[nH]c2)cc1 | 219 to 221
CC(=O)OCc1ccc(S(=O)(=O)C(F)F)cc1 | 75 to 77
COc1ccc(NS(=O)(=O)c2ccc3oc(S)nc3c2)cc1 | 175 to 177

SMILES | melting point [°C]
c1ccc(NC2CCCCC2)nc1 | 123 to 125
ClCc1cnn(-c2ccccc2)c1 | 65 to 69
C#Cc1c(F)cccc1F | 34 to 36
CC(C)c1ccc(C2(C(=O)O)CCC2)cc1 | 119 to 121
CC1CCC(C(C)C)C(OC(=O)CO)C1 (stereo unspecified) | 85 to 87
O=C(O)c1c2c(nc3ccccc13)C(=Cc1cccc(Cl)c1Cl)CCC2 | 294 to 296
CC(C)C(N)c1nn[nH]n1 (stereo unspecified) | 272 to 274
O=C(Nc1nncs1)C1CCCNC1 (stereo unspecified) | 186 to 188
CC(O)c1ccc(I)cc1 (stereo unspecified) | 43 to 45
Cc1cc(C(=O)O)nn1-c1ccccn1 | 157 to 159
NC(=O)COc1ccc(Cl)cc1S(N)(=O)=O | 214 to 216
O=C(O)c1ccc[nH]1 | 204 to 208
O=C(CCl)NCC1CCSCC1 | 83 to 85
FC(F)Oc1cccc2cccnc12 | 64 to 66
CCc1nc(C)c(C(=O)O)s1 | 165 to 167
OCc1cnc2ccccc2c1 | 82 to 84
O=C(CCCc1ccc(Br)cc1)c1ccccc1 | 84 to 86
CN(Cc1cc(C#N)ccc1F)C(=O)CCl | 103 to 105
Cc1ccc(Cl)cc1N1CC(C(=O)O)CC1=O (stereo unspecified) | 129 to 131
O=C(O)c1noc(-c2cc(F)ccc2F)n1 | 119 to 121
NC(=S)Cc1nccn1Cc1ccccc1 | 131 to 133
